# From US9175305B2, “Mutant hydroxyphenylpyruvate dioxygenase polypeptides and methods of use” (Syngenta Participations AG, priority 2009, dated 2015)
# Tests used:
# [1] = system: E. coli BL21 cells expressing HPPD SEQ ID NO:24; format: cell-based; conditions: 20 ppm sulcotrione (data not shown)
# Procedure: (§1) Cells were grown from a 10% starting inoculum into 0.5 ml of L-broth containing 50 μg of kanamycin ml^−1 in […] for 48-96 h at 15° C. Typically pyomelanin colour in the medium was read (at 430 nm) after ˜72 h.
# [2] = system: E. coli cells expressing mutant G408A; conditions: 25 ppm sulcotrione
# Procedure: as §1
# [3] = system: soybean event 1 (vector 15764) expressing SEQ ID NO:14; test: herbicide spray test on soybean events; format: in vivo; conditions: event 1/SEQ#14, V2 growth stage, 14 DAT, average of n=7
# Source text: (§2) Each data point represents the average damage score from n=7 replicates.
# (§3) These events were used to compare the performance of five 17147 events. Four of these, SF, S8, S7 and S3 had not been preselected for tolerance level (other than to confirm resistance, non-chimerical nature and the presence of the gene) while the remaining event, T0, had been preselected as the most resistant out of five 17147 events in a preliminary field test.
# (§4) Plants were in 4×4×4 inch plastic pots and grown under a 15/9 hour light regime (daylight supplemented by artificial light in greenhouses) at a minimum night-time temperature of 18° C. and maximum daytime temperature of 27° C. Soil was regular VBRC mix (1:1 mixture of Vero field soil and Fafard Mix II) where Vero field soil is 98% sand and 2% clay. […] Spray volume was 150 L/ha and the damage scores reflect assessments at 14 DAT.
# [4] = system: soybean event 2 (vector 15764) expressing SEQ ID NO:14; test: herbicide spray test on soybean events; format: in vivo; conditions: event 2/SEQ#14, V2 growth stage, 14 DAT, average of n=7
# Source text: as §2, §3, §4
# [5] = system: soybean event S8 (vector 17147) expressing SEQ ID NO:24; test: herbicide spray test on soybean events; format: in vivo; conditions: event S8/SEQ#24, V2 growth stage, 14 DAT, average of n=7
# Source text: as §2, §3, §4
# [6] = system: soybean event S7 (vector 17147) expressing SEQ ID NO:24; test: herbicide spray test on soybean events; format: in vivo; conditions: event S7/SEQ#24, V2 growth stage, 14 DAT, average of n=7
# Source text: as §2, §3, §4
# [7] = system: soybean event S3 (vector 17147) expressing SEQ ID NO:24; test: herbicide spray test on soybean events; format: in vivo; conditions: event S3/SEQ#24, V2 growth stage, 14 DAT, average of n=7
# Source text: as §2, §3, §4
# [8] = system: soybean event SF (vector 17147) expressing SEQ ID NO:24; test: herbicide spray test on soybean events; format: in vivo; conditions: event SF/SEQ#24, V2 growth stage, 14 DAT, average of n=7
# Source text: as §2, §3, §4
# [9] = system: soybean event T0 (vector 17147) expressing SEQ ID NO:24; test: herbicide spray test on soybean events; format: in vivo; conditions: event T0/SEQ#24, V2 growth stage, 14 DAT, average of n=7
# Source text: as §2, §3, §4
# [10] = system: tobacco plants expressing HPPD SEQ ID NO:24; test: herbicide spray test on transgenic tobacco; format: in vivo; conditions: 13 DAT
# [11] = system: G408A mutant of HPPD SEQ ID NO:14; test: time course of inhibition of enzyme activity; format: biochemical, Avena sativa
# [12] = system: Jack w/t; test: herbicide spray test on soybean; format: in vivo; conditions: V2 growth stage, 14 DAT, average of n=7
# Procedure: as §2, §4
# [13] = system: HPPD SEQ ID NO:26; test: biochemical; format: binding, Avena sativa; conditions: off rate, FIGS. 4A-4C
# Procedure: On rates (governed by an association rate constant, kon) for the formation of the enzyme: inhibitor complexes, EI and off rates (governed by a dissociation rate constant, koff) were determined by methods known in the art and essentially as described in Hawkes et al. (2001) Proc. Bright. Crop. Prot. Conf. Weeds, 2:563-568 and in PCT Patent App. Pub. No. WO 02/46387).
# For example, on rates were measured by, at zero time, adding ˜60 pmoles HPPD to 50 mM BisTrisPropane buffer at pH7.0 and at 25° C. containing 25 mM Na ascorbate, 4 μg/ml bovine catalase (Sigma, St. Louis, Mo.) and an excess (˜300 pmoles) of ^14C inhibitor in a total assay volume of 425 μl and, at various time points (0-180 s), quenching the radiolabel binding reaction by addition and rapid mixing of 100 μl ‘cold’ 1 mM structure A. Protein samples quenched at different times were then exchanged into 50 mM BisTrisPropane buffer at pH 7.0 containing 0.1M KCl by rapid chromatography down a NAP5 G25 Sephadex column (GE Healthcare Ltd, Buckinghamshire UK) and the amount of ^14C bound to protein fractions quantified in Optiphase scintillant using a Tri-Carb 2900TR scintillation counter (Perkin Elmer, Wellesley, Mass.). The data were fit according to the scheme below in order to derive the value of the apparent second order rate constant, k2, governing the association rate of enzyme and radiolabelled inhibitor. […]
# [14] = system: tobacco plants expressing HPPD SEQ ID NO:14; test: herbicide spray test on transgenic tobacco; format: in vivo; conditions: 13 DAT
# [15] = system: control SEQ ID NO:14 HPPD; test: time course of inhibition of enzyme activity, control enzyme; format: biochemical, Avena sativa; conditions: artifact of the method due to fast off rate during the 150 s assay
# [16] = 300 g/ha, smaller-sized population
# [17] = 500 g/ha, larger-sized population
smiles,measurement,setting,value
"CS(=O)(=O)c1ccc(C(=O)C2C(=O)CCCC2=O)c(Cl)c1 [sulc, sulcotrione]",tolerance in pyomelanin assay,[1],enhanced tolerance
same,resistance in pyomelanin assay,[2],resistance relative to HPPD SEQ ID NO:14
"CS(=O)(=O)c1ccc(C(=O)C2C(=O)CCCC2=O)c([N+](=O)[O-])c1 [Structure B, mesotrione]",% dam.,[3]; B 420 g/ha,11.4%
same,% dam.,[3]; B 840 g/ha,9.3%
same,% dam.,[4]; B 420 g/ha,20.7%
same,% dam.,[4]; B 840 g/ha,22.1%
same,% dam.,[5]; B 420 g/ha,18.6%
same,% dam.,[5]; B 840 g/ha,19.3%
same,% dam.,[6]; B 420 g/ha,10.6%
same,% dam.,[6]; B 840 g/ha,6.9%
same,% dam.,[7]; B 420 g/ha,15.3%
same,% dam.,[7]; B 840 g/ha,15.3%
same,% dam.,[8]; B 420 g/ha,15.7%
same,% dam.,[8]; B 840 g/ha,25%
same,% dam.,[9]; B 420 g/ha,8.3%
same,% dam.,[9]; B 840 g/ha,5.3%
same,plants exhibiting visible herbicide damage (number of plants),[10]; [16],2 of 28
same,plants exhibiting symptoms of herbicide damage,[10]; [17],10%
same,plants exhibiting symptoms of herbicide damage (number of plants),[10]; [17],4 of 38
same,residual activity,"[11]; 0.6 μM B, enzyme about 75 nM, incubation up to 260 s, inhibition levelled off",about 35%
same,radiochemically determined off rate compared with control SEQ ID NO:14 HPPD,[11]; ice temperature,indistinguishable
same,extent of inhibition compared with the control enzyme,[11]; inhibitor at 0.15 or 0.6 μM,to a lesser extent
same,% dam.,[12]; B 420 g/ha,82.9%
same,% dam.,[12]; B 840 g/ha,83.6%
same,dissociation from HPPD SEQ ID NO:26 compared with HPPD SEQ ID NO:24,[13],about twice as fast
same,plants exhibiting visible herbicide damage (number of plants),[14]; [16],4 of 26
same,plants exhibiting damage,[14]; [17],27%
same,residual activity,[15],~8%
